We go through four molecules from paper PMC13245873, “Uridine cytidine kinases govern molnupiravir bioactivation and anti-SARS-CoV-2 activity” (PLOS Pathogens, 2026).

By Km is commonly meant the concentration of substrate that gives half-maximal velocity. Broadly, the stoichiometry N is the number of molecules, sites or subunits per partner or assembly.

The target in data set [1] is T1, UCK1 (Homo sapiens, UniProt Q9HA47).
T1 construct: amino acids 21–235, N-terminal His tag
T1 sequence (Q9HA47 21-235): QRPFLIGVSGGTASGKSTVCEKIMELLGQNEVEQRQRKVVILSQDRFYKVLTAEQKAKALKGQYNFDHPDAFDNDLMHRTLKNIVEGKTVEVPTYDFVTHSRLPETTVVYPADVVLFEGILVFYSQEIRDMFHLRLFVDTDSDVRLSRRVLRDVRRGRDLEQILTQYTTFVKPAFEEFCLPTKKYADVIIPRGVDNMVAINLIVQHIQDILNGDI
Nature of the data set: X-ray co-crystal structure ([…] Å, with NHC). The data set is classed as binding.

Another data set concerns the target T2, UCK2 (Homo sapiens, UniProt Q9BZX2).
T2 construct: recombinant, C-terminal His tag
T2 sequence (Q9BZX2 2-261): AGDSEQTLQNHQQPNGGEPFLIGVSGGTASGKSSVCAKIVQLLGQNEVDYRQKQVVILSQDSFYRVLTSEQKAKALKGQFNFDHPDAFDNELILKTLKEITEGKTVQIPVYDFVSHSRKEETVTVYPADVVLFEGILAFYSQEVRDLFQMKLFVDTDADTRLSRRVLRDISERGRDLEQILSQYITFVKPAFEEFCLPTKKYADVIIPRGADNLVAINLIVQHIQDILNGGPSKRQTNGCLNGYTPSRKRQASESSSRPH
The experiment in a line: ADP-Glo-coupled kinase kinetics (kcat/Km); DSF dose-response. The data set is classed as biochemical. (In general: In ADP-Glo the light output rises with the ADP produced.)

In data set [2] the target is T3, UCK1 (Homo sapiens, UniProt Q9HA47).
T3 construct: recombinant, N-terminal His tag
T3 sequence (Q9HA47 1-277): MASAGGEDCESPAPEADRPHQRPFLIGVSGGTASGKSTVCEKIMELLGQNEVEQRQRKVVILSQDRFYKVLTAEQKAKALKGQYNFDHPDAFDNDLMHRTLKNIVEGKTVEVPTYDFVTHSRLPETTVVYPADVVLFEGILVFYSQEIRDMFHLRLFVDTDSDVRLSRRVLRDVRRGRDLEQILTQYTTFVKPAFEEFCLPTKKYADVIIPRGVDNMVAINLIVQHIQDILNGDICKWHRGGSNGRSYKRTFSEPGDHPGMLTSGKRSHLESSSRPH
The experiment in a line: ADP-Glo-coupled kinase kinetics; DSF dose-response. The format is biochemical.

Substrate in the data set “purified protein”: O=c1nc(NO)ccn1[C@@H]1O[C@H](CO)[C@@H](O)[C@H]1O
Nature of the data set: purified protein. The format is binding, Homo sapiens. As to conditions: AMPPNP (ATP site) and Mg2+ active site; π-stacking with F86 and F117; H-bonds with D65, D87, Y115, H120, R160 and the ATP gamma-phosphate.

Data set [3] concerns the molecule itself. The experiment in a line: SEC; gel filtration of purified recombinant UCK1 (amino acids 21–235) on a Superdex200 increase 10/300 GL column; single peak.
Substrate in data set [4]: O=c1nc(NO)ccn1[C@@H]1O[C@H](CO)[C@@H](O)[C@H]1O
Nature of the data set: ADP-Glo-coupled kinase kinetics (Km); DSF dose-response. The data set is classed as biochemical, Homo sapiens. As to conditions: ATP, Mg2+. The text has this:
ADP-Glo-coupled kinase kinetics (Km); DSF dose-response on UCK2 | NHC was a substrate for both UCK1 and UCK2

On to `Nc1ncnc2c1ncn2[C@@H]1O[C@H](CO[P@](=O)(O)O[P@](=O)(O)NP(=O)(O)O)[C@@H](O)[C@H]1O` [AMPPNP, adenosine 5’-(β,γ-imido)triphosphate], for which, at UCK1 [1], the “X-ray co-crystal structure (2.40 Å, with NHC)” value was “AMPPNP binds in a pocket closer to the surface, and is positioned by H-bonds between the phosphate group and residues”.

For `Nc1ccn([C@@H]2O[C@H](CO)[C@@H](O)[C@H]2O)c(=O)n1` [C, cytidine], at UCK2, the “ADP-Glo-coupled kinase kinetics (kcat/Km); DSF dose-response” value was 56666.7 M⁻¹ s⁻¹. Moreover, the “ADP-Glo-coupled kinase kinetics; DSF dose-response” value at UCK1 [2] is “Using cytidine as the substrate, the ADP-Glo-coupled kinase activity assay produced kinetic parameters”.

B1: human UCK1 construct (amino acids 21–235) (enzyme, UniProt Q9HA47 21-235, looked up)
chain: QRPFLIGVSGGTASGKSTVCEKIMELLGQNEVEQRQRKVVILSQDRFYKVLTAEQKAKALKGQYNFDHPDAFDNDLMHRTLKNIVEGKTVEVPTYDFVTHSRLPETTVVYPADVVLFEGILVFYSQEIRDMFHLRLFVDTDSDVRLSRRVLRDVRRGRDLEQILTQYTTFVKPAFEEFCLPTKKYADVIIPRGVDNMVAINLIVQHIQDILNGDI
notes: uridine cytidine kinase 1 (UCK1), human, residues 21-235; cDNA optimized for expression in E. coli, in pET24a(+); Tetramer by gel filtration and in the crystal's asymmetric unit; also called hUCK1; uridine cytidine kinase 1; source: E. coli BL21 (DE3), purified (IMAC, SEC)
With B1, in the data set “purified protein”, the Km came out at 1140 ± 320 µM. For the same molecule, the “stoichiometry N” value in data set [3] was 4.

B2: UCK2 (Homo sapiens) (protein)
chain: AGDSEQTLQNHQQPNGGEPFLIGVSGGTASGKSSVCAKIVQLLGQNEVDYRQKQVVILSQDSFYRVLTSEQKAKALKGQFNFDHPDAFDNELILKTLKEITEGKTVQIPVYDFVSHSRKEETVTVYPADVVLFEGILAFYSQEVRDLFQMKLFVDTDADTRLSRRVLRDISERGRDLEQILSQYITFVKPAFEEFCLPTKKYADVIIPRGADNLVAINLIVQHIQDILNGGPSKRQTNGCLNGYTPSRKRQASESSSRPH
notes: recombinant, C-terminal His tag
B2: the Michaelis constant (Km) in data set [4] was found to be 260 ± 70 µM.
